# Measurements as given in US5416090A, “Method of treating inflammation” (priority 1992, dated 1995).
# Test system: 5-HT induced paw swelling
# Assay: Serotonin (5-HT) induced acute paw inflammation
# Format: in vivo, rat (Lewis)
# Method: In one such model, the acute paw inflammation model, rats were treated with test compounds one hour prior to plantar injection of a 50 μl volume of a phlogistic. Animals were sacrificed and paw weights were determined at a prescribed time interval following the plantar injections. When 1% carrageenan was used as the phlogistic, the time interval between injection and sacrifice was 3 hours. When serotonin (5-hydroxytryptamine (5-HT)) was used, as the phlogistic agent the time interval was one hour. When substance P was used, the time interval was 30 minutes. The acute paw inflammation model is described in more detail in Example 3.
# Male Lewis rats (Charles River or Harlan Sprague Dawley) weighing 180 to 250 g were used in all acute inflammatory studies. Animals were maintained on a 12:12 hour light:dark cycle and were allowed ad lib access for food (Purina lab chow) and water. Experimental groups consisted of 5 or 6 rats.
# Acute paw swelling was induced by the intraplantar injection of phlogistic agents into the left hind paw, with the uninjected right hind paw serving as the comparative control. One hour after dosing with test compound, 50 μl of serotonin (Sigma; 0.005 to 0.2 mg/ml in normal saline) or substance P (Sigma; 0.01 or 0.05 mg/ml in 10% thiorphan in normal saline) or carrageenan (Marine Colloidal or Sigma Type IV; 1% in normal saline) were injected under the skin of the left hind paw, while the animal was restrained in a plastic cone. Negative controls were given 50 μl intradermal injections of normal saline (serotonin or carrageenan assays) or 10% thiorphan (substance P assays) into the left hind paw. One hour following injection of serotonin, or 30 minutes following injection of substance P, or 180 minutes following injection of carrageenan, the animals were sacrificed by CO2 asphyxiation. The right and left hind paws were cut just proximal to the tibiotarsal joint and weighed. The difference in weight between an individual animal's left and right paws were used as an indicator of tissue swelling.
# As indicated above, test compounds are administered as a one hour pretreatment. In one series of experiments, 24 hour and 48 hour drug pretreatment periods were used. Test compounds were dosed intraperitoneally as a suspension in 1% carboxymethylcellulose.
compound,measurement,setting,value
"CCCN1C[C@H](CSC)C[C@@H]2c3cccc4c3c(cn4C(C)C)C[C@H]21 [Compound 1, D-1-isopropyl-6-n-propyl-8β-methylthiomethyl ergoline]",reduction in paw swelling,3 mg/kg dosed 24 hours prior to phlogistic challenge,significant reduction in paw swelling
same,reduction in paw swelling,3 mg/kg dosed 48 hours prior to phlogistic challenge,significant reduction in paw swelling
same,effect on 5-HT induced paw swelling,FIG. 2,Inhibitory effect
same,duration of anti-inflammatory effect,FIG. 3,longlasting
same,inhibition of serotonin induced paw swelling,"FIG. 3, serotonin 0.2 mg/kg, 1, 24 and 48 hour following a single injection",Inhibition
same,minimal effective dose,"Rattus norvegicus, ip, read-out: lowest stated dosage with a significant reduction in paw swelling",0.1 mg/kg
